Results from paper PMC4424558, “Antimicrobial and antioxidant flavonoids from the leaves of Oncoba spinosa Forssk. (Salicaceae)” (BMC Complementary and Alternative Medicine, 2015).
In brackets after ≈: the same amount, converted by molar mass. Where two headings read alike, the source gives them in different places.

Legend:
[1] = test system: Candida albicans ATCC 9002; test: Broth microdilution MIC/MFC against Candida albicans ATCC 9002; format: cell-based; details: for MIC: 48 h
Procedure: (§1) The studied microorganisms were both reference (from the American Type Culture Collection) and clinical (from Pasteur Institute Paris, France) strains of Enterobacter aerogenes, Escherichia coli, Klebsiella pneumoniae, Candida albicans, and Cryptococcus neoformans. Also, included were two clinical isolates of Candida parapsilosis and Staphylococcus aureus collected from Pasteur Centre (Yaoundé-Cameroon). The bacterial and fungal species were grown at 37°C and maintained on nutrient agar (NA, Conda, Madrid, Spain) and Sabouraud Dextrose Agar (SDA, Conda) slants respectively.
(§2) The inocula of yeasts and bacteria were prepared from overnight cultures by picking numerous colonies and suspending them in sterile saline (NaCl) solution (0.90%). Absorbance was read at 530 nm for yeasts or at 600 nm for bacteria and adjusted with the saline solution to match that of a 0.50 McFarland standard solution. From the prepared microbial solutions, other dilutions with saline solution were prepared to give a final concentration of 10^6 yeast cells/ml and 10^6 CFU/ml for bacteria.
(§3) The antimicrobial activity was investigated by determining the minimum inhibitory concentrations (MICs), minimum bactericidal concentrations (MBCs) and minimum fungicidal concentrations (MFCs).
(§4) MICs were determined by broth micro dilution. Stock solutions of the tested samples were prepared in 10% v/v aqueous dimethylsulfoxide (DMSO) solution (Fisher chemicals, Strasbourg, France) at concentration of 4096 μg/ml. This was two-fold serially diluted in Mueller-Hinton Broth (MHB) for bacteria and Sabouraud Dextrose Broth (SDB) for fungi to obtain a concentration range of 2048 to 0.25 μg/ml. For every experiment, a sterility check (10% aqueous DMSO and medium), negative control (10% aqueous DMSO, medium and inoculum) and positive control (10% aqueous DMSO, medium, inoculum and water-soluble antibiotics) were included. One hundred microliters of each concentration was introduced into a well (96-wells microplate) containing 90 μl of SDB or MHB and 10 μl of inoculum was added to obtain a final concentration range of 4096 to 0.125 μg/ml. The plates were covered with a sterile lid, and incubated on the shaker at 37°C for 24 h (bacteria) and 48 h (yeasts). MICs were assessed visually after the corresponding incubation period and were taken as the lowest sample concentration at which there was no growth or virtually no growth. The assay was repeated thrice.
(§5) The lowest concentration that yielded no growth after the sub-culturing was taken as the MBCs or MFCs. Chloramphenicol (Sigma-Aldrich, Steinheim, Germany) for bacteria and nystatin (Sigma-Aldrich, Steinheim, Germany) for yeasts were used as positive controls.

Staphylococcus aureus = test: Broth microdilution MIC/MBC against Staphylococcus aureus; format: cell-based; details: Staphylococcus aureus clinical isolate; for MIC: 37°C, 24 h
Procedure: as §1, §2, §3, §4, §5

Candida parapsilosis = test: Broth microdilution MIC/MFC against Candida parapsilosis; format: cell-based; details: Candida parapsilosis clinical isolate; for MIC: 37°C, 48 h
Procedure: as §1, §2, §3, §4, §5

[2] = Trolox equivalent antioxidant capacity (TEAC) assay; format: biochemical; details: ABTS/laccase, 420 nm, 230 s; 20 μg/ml isolated compounds, 10-400 μg/ml MeOH extract; gallic acid equivalents
Procedure: The TEAC test was done as previously described with slight modifications. In a quartz cuvette, to 950 μl acetate buffer (pH = 5.0, 100 mM), the following were added: 20 μl laccase (1 mM stock solution), 20 μl test sample, 10 μl ABTS (2,2′-azinobis(3-ethylbenzothiazoline-6-sulfonic acid)) (74 mM stock solution). The laccase were purified from Sclerotinia sclerotiorum according to the protocol described. The sample concentrations in the assay mixture were 400, 200, 100, 10 μg/ml for the MeOH extract and 20 μg/ml for the isolated compounds. The content of the generated ABTS^●+ radical was measured at 420 nm after 230 s reaction time and was converted to gallic acid equivalents by the use of a calibration curve (Pearson’s correlation coefficient: r = 0.998) constructed with 0, 4, 10, 14, 28, 56, 84 μM gallic acid standards rather than Trolox. Experiments were done in triplicate.

[3] = DPPH free radical scavenging assay; format: biochemical; details: 30 min, room temperature, 517 nm
Procedure: The free radical scavenging activity of the MeOH extract as well as some of its isolated compounds was evaluated according to described methods with slight modifications. Briefly, the test samples, prior dissolved in DMSO (SIGMA) beforehand, were mixed with a 20 mg/l 2,2-diphenyl-1-picryl-hydrazyl (DPPH) methanol solution, to give final concentrations of 10, 50, 100, 500 and 1000 μg/ml. After 30 min at room temperature, the absorbance values were measured at 517 nm and converted into percentage of antioxidant activity. L-ascorbic acid was used as a standard control. The percentage of decolouration of DPPH (%) was calculated as follows: %decolourationofDPPH=Absorbanceofcontrol−Absorbanceoftestsample)×100/Absorbanceofcontrol
The percentage of decolouration of DPPH (%) was plotted against the test sample. Also, the percentage of decolouration of DPPH was converted in probits. The probit values were plotted against the logarithmic values of concentrations of the test samples and a linear regression curve was established in order to calculate the EC50 (μg/ml), which is the amount of sample necessary to decrease by 50% the absorbance of DPPH [11]. All the analyses were carried out in triplicate.

[4] = test system: Enterobacter aerogenes ATCC13048; test: Broth microdilution MIC/MBC against Enterobacter aerogenes ATCC13048; format: cell-based; details: for MBC / MIC: Klebsiella aerogenes; for MIC: 37°C, 24 h
Procedure: as §1, §2, §3, §4, §5

[5] = test system: Klebsiella pneumoniae ATCC11296; test: Broth microdilution MIC/MBC against Klebsiella pneumoniae ATCC11296; format: cell-based; details: for MIC: 37°C, 24 h
Procedure: as §1, §2, §3, §4, §5

fungi = test: Broth microdilution, fungal strains (panel summary); format: cell-based; details: range over the fungal strains
Procedure: as §1, §2, §3
as §4, with “One hundred microliters of each concentration was introduced into a well (96-wells microplate) containing 90 μl of SDB or MHB and 10 μl of inoculum was added to obtain a final concentration range of 4096 to 0.125 μg/ml. The plates were covered with a sterile lid, and incubated on the shaker at 37°C for 24 h (bacteria) and 48 h (yeasts).” left out, “The assay was repeated thrice.” left out

[6] = test system: Cryptococcus neoformans IP 90526; test: Broth microdilution MIC/MFC against Cryptococcus neoformans IP 90526; format: cell-based; details: for MIC: 48 h
Procedure: as §1, §2, §3, §4, §5

[7] = test system: bacterial and fungal species; test: Broth microdilution, all studied microorganisms (panel summary); format: cell-based; details: for studied microorganisms on which inhibitory effects were noted: out of 7 studied microorganisms
Procedure: as §1, §2, §3, §4, §5

[8] = test system: Escherichia coli ATCC8739; test: Broth microdilution MIC/MBC against Escherichia coli ATCC8739; format: cell-based; details: for MIC: 37°C, 24 h
Procedure: as §1, §2, §3, §4, §5

bacteria = test: Broth microdilution, bacterial strains (panel summary); format: cell-based; details: range over the bacterial strains
Procedure: as §1
The inocula of yeasts and bacteria were prepared from overnight cultures by picking numerous colonies and suspending them in sterile saline (NaCl) solution (0.90%). Absorbance was read at 530 nm for yeasts or at 600 nm for bacteria and adjusted with the saline solution to match that of a 0.50 McFarland standard solution. From the prepared microbial solutions, other dilutions with saline solution were prepared to give a final concentration of 10^6 yeast cells/ml and 10^6 CFU/ml for bacteria. […]
MICs were determined by broth micro dilution. […] MICs were assessed visually after the corresponding incubation period and were taken as the lowest sample concentration at which there was no growth or virtually no growth. […]

[9] = Lodderomyces parapsilosis, read-out: MIC
[10] = Lodderomyces parapsilosis, read-out: MFC

O=c1c(O)c(-c2ccc(O)c(O)c2)oc2cc(O)cc(O)c12 [Compound 2, quercetin]
MFC/MIC [1]: 1
MIC ([1]; ATCC9002, 37°C, read-out: MIC): 128 µg/mL (≈ 424 µM)
MFC ([1]; ATCC9002, read-out: MFC): 128 µg/mL (≈ 424 µM)
MBC (Staphylococcus aureus): > 256 µg/mL
MIC (Staphylococcus aureus): 256 µg/mL (≈ 847 µM)
MFC/MIC (Candida parapsilosis): 1
MIC (Candida parapsilosis; [9]): 64 µg/mL (≈ 212 µM)
MFC (Candida parapsilosis; [10]): 64 µg/mL (≈ 212 µM)
Gallic acid equivalent antioxidant capacity (TEAC) [2]: 89.86 µg/mL
EC50, concentration scavenging 50% of DPPH radical [3]: 5.08 µg/mL
MBC/MIC [4]: 1
MBC [4]: 64 µg/mL (≈ 212 µM)
MIC [4]: 64 µg/mL (≈ 212 µM)
MBC [5]: 64 µg/mL (≈ 212 µM)
MBC/MIC [5]: 1
MIC [5]: 64 µg/mL (≈ 212 µM)
MIC (range over fungi) (fungi): 64 to 128 µg/mL
MFC/MIC [6]: 1
MIC ([6]; IP90526, 37°C, read-out: MIC): 64 µg/mL (≈ 212 µM)
MFC ([6]; IP90526, read-out: MFC): 64 µg/mL (≈ 212 µM)
activity against all the microbial strains (in words) [7]: active against all the microbial strains
studied microorganisms on which inhibitory effects were noted [7]: 7/7
MBC [8]: 256 µg/mL (≈ 847 µM)
MBC/MIC [8]: 2
MIC [8]: 128 µg/mL (≈ 424 µM)

O=C1O[C@H]([C@@H](O)CO)C(O)=C1O [vitamin C, L-ascorbic acid, reference compound]
EC50, concentration scavenging 50% of DPPH radical [3]: 4.72 µg/mL

O=C(N[C@H](CO)[C@H](O)c1ccc([N+](=O)[O-])cc1)C(Cl)Cl [chloramphenicol, Chloramphenicol, reference compound]
MBC (Staphylococcus aureus): 64 µg/mL (≈ 198 µM)
MBC/MIC (Staphylococcus aureus): 1
MIC (Staphylococcus aureus): 64 µg/mL (≈ 198 µM)
MIC (range over bacteria) (bacteria): 16 to 64 µg/mL
MBC/MIC [4]: 1
MBC [4]: 64 µg/mL (≈ 198 µM)
MIC [4]: 64 µg/mL (≈ 198 µM)
MBC [5]: 16 µg/mL (≈ 49.5 µM)
MBC/MIC [5]: 1
MIC [5]: 16 µg/mL (≈ 49.5 µM)
MBC [8]: 64 µg/mL (≈ 198 µM)
MBC/MIC [8]: 1
MIC [8]: 64 µg/mL (≈ 198 µM)

O=C(O)[C@H]1O[C@@H](Oc2cc(O)c3c(=O)cc(-c4ccc(O)cc4)oc3c2)[C@H](O)[C@@H](O)[C@@H]1O [Compound 3, apigenin-7-O-β-D-glucuronopyranoside]
MIC ([1]; ATCC9002, 37°C, read-out: MIC): > 256 µg/mL
MIC (Staphylococcus aureus): > 256 µg/mL
MFC/MIC (Candida parapsilosis): 2
MIC (Candida parapsilosis; [9]): 64 µg/mL (≈ 143 µM)
MFC (Candida parapsilosis; [10]): 128 µg/mL (≈ 287 µM)
EC50, concentration scavenging 50% of DPPH radical [3]: 29.16 µg/mL
MBC/MIC [4]: 1
MBC [4]: 128 µg/mL (≈ 287 µM)
MIC [4]: 128 µg/mL (≈ 287 µM)
MBC [5]: 256 µg/mL (≈ 574 µM)
MBC/MIC [5]: 1
MIC [5]: 256 µg/mL (≈ 574 µM)
MFC/MIC [6]: 1
MIC ([6]; IP90526, 37°C, read-out: MIC): 128 µg/mL (≈ 287 µM)
MFC ([6]; IP90526, read-out: MFC): 128 µg/mL (≈ 287 µM)
studied microorganisms on which inhibitory effects were noted [7]: 4/7
MIC [8]: > 256 µg/mL

O=c1c(O[C@@H]2O[C@H](CO)[C@H](O)[C@H](O)[C@H]2O)c(-c2ccc(O)c(O)c2)oc2cc(O)cc(O)c12 [Compound 4, quercetin 3-O-β-D-galactopyranoside]
MFC/MIC [1]: 1
MIC ([1]; ATCC9002, 37°C, read-out: MIC): 256 µg/mL (≈ 551 µM)
MFC ([1]; ATCC9002, read-out: MFC): 256 µg/mL (≈ 551 µM)
MBC (Staphylococcus aureus): 128 µg/mL (≈ 276 µM)
MBC/MIC (Staphylococcus aureus): 1
MIC (Staphylococcus aureus): 128 µg/mL (≈ 276 µM)
MFC/MIC (Candida parapsilosis): 2
MIC (Candida parapsilosis; [9]): 128 µg/mL (≈ 276 µM)
MFC (Candida parapsilosis; [10]): 256 µg/mL (≈ 551 µM)
Gallic acid equivalent antioxidant capacity (TEAC) [2]: 72.95 µg/mL
EC50, concentration scavenging 50% of DPPH radical [3]: 13.44 µg/mL
MBC/MIC [4]: 2
MBC [4]: 64 µg/mL (≈ 138 µM)
MIC [4]: 32 µg/mL (≈ 68.9 µM)
MBC [5]: 64 µg/mL (≈ 138 µM)
MBC/MIC [5]: 2
MIC [5]: 32 µg/mL (≈ 68.9 µM)
MFC/MIC [6]: 1
MIC ([6]; IP90526, 37°C, read-out: MIC): 128 µg/mL (≈ 276 µM)
MFC ([6]; IP90526, read-out: MFC): 128 µg/mL (≈ 276 µM)
activity against all the microbial strains (in words) [7]: active against all the microbial strains
studied microorganisms on which inhibitory effects were noted [7]: 7/7
MBC [8]: 128 µg/mL (≈ 276 µM)
MBC/MIC [8]: 1
MIC [8]: 128 µg/mL (≈ 276 µM)

C[C@@H]1[C@H](O)[C@@H](C)/C=C/C=C/CC/C=C/C=C/C=C/C=C/C(O[C@H]2O[C@H](C)[C@@H](O)[C@H](N)[C@@H]2O)CC2O[C@](O)(CC(O)C(O)CCC(O)CC(O)CC(O)CC(=O)O[C@H]1C)CC(O)C2C(=O)O (stereo partly shown) [nystatin, reference compound]
MFC [1]: 128 µg/mL (≈ 138 µM)
MFC/MIC [1]: 1
MIC ([1]; 37°C): 128 µg/mL (≈ 138 µM)
MFC (Candida parapsilosis): 256 µg/mL (≈ 276 µM)
MFC/MIC (Candida parapsilosis): 1
MIC (Candida parapsilosis): 256 µg/mL (≈ 276 µM)
MIC (range over fungi) (fungi): 128 to 256 µg/mL
MFC [6]: 256 µg/mL (≈ 276 µM)
MFC/MIC [6]: 2
MIC ([6]; 37°C): 128 µg/mL (≈ 138 µM)
